Measured values as given in ChEMBL document CHEMBL5584260, “Identification of coumarin - benzimidazole hybrids as potential antibacterial agents: Synthesis, in vitro and in vivo biological assessment, and ADMET prediction” (Bioorg Med Chem Lett, 2024).
In brackets after ≈: the same amount, converted by molar mass.

Legend:
Acinetobacter baumannii = test: Antibacterial activity against Acinetobacter baumannii BAA-16051 assessed as inhibition of bacterial growth by CLSI protocol based microtiter broth dilution method; assay type: functional
Pseudomonas aeruginosa [1] = test: Antibacterial activity against Pseudomonas aeruginosa ATCC 27853 assessed as inhibition of bacterial growth by CLSI protocol based microtiter broth dilution method; assay type: functional
Klebsiella pneumoniae [2] = test: Antibacterial activity against Klebsiella pneumoniae ATCC 27736 assessed as inhibition of bacterial growth by CLSI protocol based microtiter broth dilution method; assay type: functional
THP-1 [3] = test: Cytotoxicity against human THP-1 cells assessed as cell death at 100 uM incubated for 24 hrs by LDH assay (reference value: 0.00 +/- 0.56 %); assay type: toxicity, cell-based; conditions: thp-1, 24 h
[4] = (§1) Cytotoxicity against human THP-1 cells assessed as cell survival at 50 uM incubated for 24 hrs by MTT assay (reference value: 100.0 +/- 5.24 %); assay type: toxicity, cell-based; conditions: THP-1 cells, read-out: Activity
[5] = (§2) Cytotoxicity against human THP-1 cells assessed as cell survival at 100 uM incubated for 24 hrs by MTT assay (reference value: 100.0 +/- 5.24 %); assay type: toxicity, cell-based; conditions: THP-1 cells, read-out: Activity
Klebsiella pneumoniae [6] = test: Antimicrobial activity against Klebsiella pneumoniae ATCC 27736 infected in neutropenic thigh infection BALB/c mouse model assessed as log reduction in bacterial count in thigh at 50 mg/kg pre-infected with bacteria for 3 to 6 hrs followed by compound administration and measured 36 hrs post infection; assay type: functional; conditions: time 30-33 hrs
THP-1 [7] = test: Cytotoxicity against human THP-1 cells assessed as cell death at 50 uM incubated for 24 hrs by LDH assay (reference value: 0.00 +/- 0.56 %); assay type: toxicity, cell-based; conditions: thp-1, 24 h
Bacillus subtilis [8] = test: Antibacterial activity against Bacillus subtilis incubated for 24 hrs by serial broth dilution method; assay type: functional
Escherichia coli [9] = test: Antibacterial activity against Escherichia coli incubated for 24 hrs by serial broth dilution method; assay type: functional
Staphylococcus aureus [10] = test: Antibacterial activity against Staphylococcus aureus incubated for 24 hrs by serial broth dilution method; assay type: functional
Pseudomonas aeruginosa [11] = test: Antibacterial activity against Pseudomonas aeruginosa incubated for 24 hrs by serial broth dilution method; assay type: functional
Escherichia coli [12] = test: Antibacterial activity against Escherichia coli incubated for 16 hrs by CLSI protocol based microtiter broth dilution method; assay type: functional
Staphylococcus aureus [13] = test: Antibacterial activity against Staphylococcus aureus incubated for 16 hrs by CLSI protocol based microtiter broth dilution method; assay type: functional
Bacillus subtilis [14] = test: Antibacterial activity against Bacillus subtilis incubated for 16 hrs by CLSI protocol based microtiter broth dilution method; assay type: functional
Pseudomonas aeruginosa [15] = test: Antibacterial activity against Pseudomonas aeruginosa incubated for 16 hrs by CLSI protocol based microtiter broth dilution method; assay type: functional
THP-1 [16] = test: as §1; assay type: toxicity, cell-based; conditions: thp-1, 24 h, 50 µM
THP-1 [17] = test: as §2; assay type: toxicity, cell-based; conditions: thp-1, 24 h, 100 µM

MIC (Acinetobacter baumannii) [µg/mL] | MIC (Pseudomonas aeruginosa [1]) [µg/mL] | MIC (Klebsiella pneumoniae [2]) [µg/mL] | Molecule | other results
> 100 | > 100 | > 100 | O=c1oc2ccc(Br)cc2cc1-c1nc2ccccc2n1-c1ccc(Br)cc1 | 
> 100 | > 100 | > 100 | O=c1oc2ccccc2cc1-c1nc2ccccc2n1-c1ccc(Br)cc1 | 
> 100 | > 100 | > 100 | O=c1oc2ccc(Br)cc2cc1-c1nc2ccccc2n1-c1ccc(Cl)cc1 | 
> 100 | > 100 | > 100 | O=c1oc2ccc(Cl)cc2cc1-c1nc2ccccc2[nH]1 | 
> 100 | > 100 | > 100 | O=c1oc2ccc(Br)cc2cc1-c1nc2ccccc2[nH]1 | 
> 50 | 6.25 (≈ 16.3 µM) | 0.78 (≈ 2.03 µM) | C[C@@H](O)[C@H]1C(=O)N2C(C(=O)O)=C(S[C@@H]3CN[C@H](C(=O)N(C)C)C3)[C@H](C)[C@H]12 [MEROPENEM] | 
> 100 | > 100 | 6.25 (≈ 17.7 µM) | Cc1ccc(-n2c(-c3cc4ccccc4oc3=O)nc3ccccc32)cc1 | Activity (THP-1 [3]): 16.88%; viability at 24 h, 50 µM [4]: 94.1%; viability at 24 h, 100 µM [5]: 27.3%; log(activity) (Klebsiella pneumoniae [6]): >2; Activity (THP-1 [7]): 11.25%
 |  |  | O=c1oc2ccccc2c(O)c1C(Sc1nc2ccccc2[nH]1)c1ccc(O)cc1 (configuration not stated) | MIC (Bacillus subtilis [8]): 250 µg/mL (≈ 600 µM); MIC (Escherichia coli [9]): 250 µg/mL (≈ 600 µM)
> 100 | > 100 | > 100 | O=c1oc2ccc(Cl)cc2cc1-c1nc2ccccc2n1-c1ccc(Br)cc1 | 
> 100 | > 100 | > 100 | O=c1oc2ccc(Br)cc2cc1-c1nc2ccccc2n1-c1ccccc1 | 
> 100 | > 100 | > 100 | Cc1ccc(-n2c(-c3cc4cc(Br)ccc4oc3=O)nc3ccccc32)cc1 | 
> 100 | > 100 | > 100 | O=c1oc2ccccc2cc1-c1nc2ccccc2n1-c1ccccc1 | 
> 100 | > 100 | > 100 | O=c1oc2ccc(Cl)cc2cc1-c1nc2ccccc2n1-c1ccccc1 | 
 |  |  | O=C(CC(Sc1nc2ccccc2[nH]1)c1ccccc1)c1cc2ccccc2oc1=O (configuration not stated) | MIC (Staphylococcus aureus [10]): 2400 µg/mL (≈ 5630 µM); MIC (Pseudomonas aeruginosa [11]): 2200 µg/mL (≈ 5160 µM); MIC (Bacillus subtilis [8]): 2300 µg/mL (≈ 5390 µM); MIC (Escherichia coli [9]): 2100 µg/mL (≈ 4920 µM)
> 100 | > 100 | > 100 | O=c1oc2ccccc2cc1-c1nc2ccccc2n1-c1ccc(Cl)cc1 | 
 |  |  | O=c1oc2ccccc2cc1/C(Cn1cnc2ccccc21)=N\Oc1ccc(Cl)cc1 | MIC (Escherichia coli [12]): 3.12 µg/mL (≈ 7.26 µM); MIC (Staphylococcus aureus [13]): 1.56 µg/mL (≈ 3.63 µM); MIC (Bacillus subtilis [14]): 0.95 µg/mL (≈ 2.21 µM); MIC (Pseudomonas aeruginosa [15]): 3.12 µg/mL (≈ 7.26 µM)
> 100 | > 100 | > 100 | Cc1ccc(-n2c(-c3cc4cc(Cl)ccc4oc3=O)nc3ccccc32)cc1 | 
> 100 | > 100 | > 100 | O=c1oc2ccc(Cl)cc2cc1-c1nc2ccccc2n1-c1ccc(Cl)cc1 | 
3.12 | 1.25 | 1.25 | POLYMYXIN B [listing 1 of 2 here] | 
 |  |  | POLYMYXIN B [listing 2 of 2 here] | Activity (THP-1 [3]): 30.59%; Activity (THP-1 [16]): 72.77%; Activity (THP-1 [17]): 54.94%; Activity (THP-1 [7]): 19.64%
> 100 | > 100 | 6.25 (≈ 19.6 µM) | CCCCn1c(-c2cc3ccccc3oc2=O)nc2ccccc21 | Activity (THP-1 [3]): 11.43%; viability at 24 h, 50 µM [4]: 89.7%; viability at 24 h, 100 µM [5]: 27.7%; log(activity) (Klebsiella pneumoniae [6]): >2; Activity (THP-1 [7]): 8.01%

Molecule | MIC (Acinetobacter baumannii) [µg/mL] | MIC (Pseudomonas aeruginosa [1]) [µg/mL] | MIC (Klebsiella pneumoniae [2]) [µg/mL] | other results
CN[C@H](CC(C)C)C(=O)N[C@H]1C(=O)N[C@@H](CC(N)=O)C(=O)N[C@H]2C(=O)N[C@H]3C(=O)N[C@H](C(=O)N[C@H](C(=O)O)c4cc(O)cc(O)c4-c4cc3ccc4O)[C@H](O)c3ccc(c(Cl)c3)Oc3cc2cc(c3O[C@@H]2O[C@H](CO)[C@@H](O)[C@H](O)[C@H]2O[C@H]2C[C@](C)(N)[C@H](O)[C@H](C)O2)Oc2ccc(cc2Cl)[C@H]1O [VANCOMYCIN] | 12.5 (≈ 8.63 µM) | > 50 | > 50 | Activity (THP-1 [3]): 13.88%; viability at 24 h, 50 µM [4]: 66.1%; viability at 24 h, 100 µM [5]: 65.9%; Activity (THP-1 [7]): 6.99%
